Here are results for ten molecules from publication PMC9056166 (RSC Advances, 2020).

Entries after “also recorded” stand apart in the source; their conditions may differ. Marks after values point to notes of the source that are not given here.

The target in one test is T1, ovine COX-1 (Ovis aries, UniProt P05979).
T1 sequence (P05979 25-600): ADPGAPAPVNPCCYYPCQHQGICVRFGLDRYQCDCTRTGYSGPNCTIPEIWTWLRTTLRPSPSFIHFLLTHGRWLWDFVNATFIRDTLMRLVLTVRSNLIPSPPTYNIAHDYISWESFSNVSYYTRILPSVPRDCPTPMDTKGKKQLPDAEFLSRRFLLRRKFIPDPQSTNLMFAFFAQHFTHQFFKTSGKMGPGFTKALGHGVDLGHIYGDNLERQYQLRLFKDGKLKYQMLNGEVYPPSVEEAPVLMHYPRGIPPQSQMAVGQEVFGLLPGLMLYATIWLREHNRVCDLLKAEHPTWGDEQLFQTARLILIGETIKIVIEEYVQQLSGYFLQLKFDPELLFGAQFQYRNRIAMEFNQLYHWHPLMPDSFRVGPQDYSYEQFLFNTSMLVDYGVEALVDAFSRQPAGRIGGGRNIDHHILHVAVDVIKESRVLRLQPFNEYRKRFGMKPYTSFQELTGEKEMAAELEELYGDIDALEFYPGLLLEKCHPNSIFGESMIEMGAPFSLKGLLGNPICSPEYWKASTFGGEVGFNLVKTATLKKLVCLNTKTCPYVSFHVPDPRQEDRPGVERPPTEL
In words: In vitro COX-1 inhibition, enzyme immunoassay. The class given is biochemical.

The target of a further test is PDE5 (Homo sapiens, UniProt O76074). In words: Phosphodiesterase 5 enzyme activity assay. The format is biochemical. The settings on record: for inhibition at 10 µM: read-out: PDE5 activity, decrease (↓, inhibition); for effect on PDE5 activity (in words): 10 μM; for PDE5 activity, increase (↑, enhancement): 10 μM compound.
A further test deals with T2, human recombinant COX-2 (Homo sapiens, UniProt P35354).
T2 sequence (P35354 18-604): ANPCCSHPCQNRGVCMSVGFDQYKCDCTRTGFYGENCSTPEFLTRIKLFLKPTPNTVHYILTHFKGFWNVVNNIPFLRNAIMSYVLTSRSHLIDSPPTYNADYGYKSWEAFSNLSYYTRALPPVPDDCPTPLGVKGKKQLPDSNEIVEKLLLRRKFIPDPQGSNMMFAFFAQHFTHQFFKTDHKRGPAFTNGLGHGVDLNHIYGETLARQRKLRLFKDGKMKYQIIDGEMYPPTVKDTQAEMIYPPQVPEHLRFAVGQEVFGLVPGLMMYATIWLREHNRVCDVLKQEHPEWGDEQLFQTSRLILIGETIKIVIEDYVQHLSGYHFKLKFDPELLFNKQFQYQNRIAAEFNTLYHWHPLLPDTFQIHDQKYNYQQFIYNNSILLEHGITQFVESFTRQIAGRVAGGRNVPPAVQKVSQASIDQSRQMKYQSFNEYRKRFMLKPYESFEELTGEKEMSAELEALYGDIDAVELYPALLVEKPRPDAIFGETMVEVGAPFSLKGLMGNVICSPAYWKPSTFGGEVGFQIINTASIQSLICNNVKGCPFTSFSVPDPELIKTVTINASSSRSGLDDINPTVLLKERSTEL
In words: In vitro COX-2 inhibition, enzyme immunoassay. The format is biochemical. The settings on record: for COX-2 S.I. (COX-1/COX-2): IC50 (COX-1)/IC50 (COX-2).

The format of test [1] is in vivo, White New Zealand rabbits. The settings on record: normotensive rabbits; for MABP: mean arterial blood pressure, i.v. (jugular vein), means ± SE, n = 4.

`C/C(=C/C(=O)Nc1nccs1)Nc1ccc(Cl)cc1` [Compound 23c, (Z)-3-((4-chlorophenyl)amino)-N-(thiazol-2-yl)but-2-enamide] showed a half-maximal inhibitory concentration (IC50) on ovine COX-1 of 6.33 µM. For the same molecule, the inhibition at 10 µM on PDE5 was 100%. In addition, on human recombinant COX-2, the IC50 came to 0.61 µM and the “COX-2 S.I. (COX-1/COX-2)” value is 10.38. Besides, in test [1], the MABP stood at 100 and the “MABP compared with control (in words)” value is recorded as “without causing hypotension; also recorded: higher than the control values in a nonsignificant manner”.

As to `CC(=O)C(C(C)=O)C(=O)Nc1nccs1` [Compound 17, 2-acetyl-3-oxo-N-(thiazol-2-yl)butanamide], the half-maximal inhibitory concentration (IC50) on ovine COX-1 turned out to be 1.4 µM. On PDE5, the “effect on PDE5 activity (in words)” value was “increased the PDE5 activity” and the “PDE5 activity, increase (↑, enhancement)” value is reported as 371%. For the same molecule, at human recombinant COX-2, the half-inhibitory concentration (IC50) was found to be 0.09 µM and the “COX-2 S.I. (COX-1/COX-2)” value is 15.56. Also, in test [1], the MABP is recorded as 87^&, the “MABP compared with control (in words)” value was “insignificantly lower than the control values” and the “MABP compared with sildenafil (in words)” value is reported as “significantly higher than the sildenafil values”.

On to `Cc1cc(O)n(-c2nccs2)n1` [Compound 7, 3-methyl-1-(thiazol-2-yl)-1H-pyrazol-5-ol], for which the IC50 against ovine COX-1 turned out to be 6.34 µM. At PDE5, the inhibition at 10 µM came out at 75%. For the same molecule, at human recombinant COX-2, the 50% inhibitory concentration (IC50) stood at 0.63 µM and the “COX-2 S.I. (COX-1/COX-2)” value was found to be 10.06. Also, in test [1], the MABP is on record as 81^#, the “MABP compared with control (in words)” value is on record as “significantly lower than that of the control” and the “MABP compared with sildenafil (in words)” value is recorded as “insignificantly higher than the sildenafil one”.

`CC(=O)c1c(C)[nH]c(C(=O)Nc2nccs2)c1C` [Compound 5b, 4-Acetyl-3,5-dimethyl-N-(thiazol-2-yl)-1H-pyrrole-2-carboxamide]: half-maximal inhibition against ovine COX-1 (IC50) required 1.3 µM. Besides, on PDE5, the “effect on PDE5 activity (in words)” value is “very low activity” and the “PDE5 activity, increase (↑, enhancement)” value is 15%. Also, at human recombinant COX-2, the concentration for half-maximal inhibition (IC50) amounted to 0.24 µM and the “COX-2 S.I. (COX-1/COX-2)” value was determined as 5.4. In test [1], the MABP worked out at 98 and the “MABP compared with control (in words)” value is on record as “higher than the control values in a nonsignificant manner”.

Consider `CCCc1nn(C)c2c(=O)[nH]c(-c3cc(S(=O)(=O)N4CCN(C)CC4)ccc3OCC)nc12` [Sildenafil, sildenafil, reference compound], for which the inhibition at 10 µM at PDE5 was 100%. For the same molecule, the MABP in test [1] was found to be 72.50 ± 2.9.

With `CCOC(=O)c1c(C)[nH]c(C(=O)Nc2nccs2)c1C` [Compound 5a, Ethyl 2,4-dimethyl-5-(thiazol-2-ylcarbamoyl)-1H-pyrrole-3-carboxylate], the half-inhibitory concentration (IC50) against ovine COX-1 came out at 1.6 µM. In addition, at PDE5, the “effect on PDE5 activity (in words)” value is reported as “increased the PDE5 activity” and the “PDE5 activity, increase (↑, enhancement)” value was 222%. For the same molecule, on human recombinant COX-2, the IC50 turned out to be 0.1 µM and the “COX-2 S.I. (COX-1/COX-2)” value worked out at 16. In test [1], the MABP was 108^## and the “MABP compared with control (in words)” value was “significantly higher”.

`CCOC(=O)CCC(=O)Nc1nccs1` [Compound 11, ethyl 4-oxo-4-(thiazol-2-ylamino)butanoate]: the IC50 against ovine COX-1 was 1.7 µM. Also, at PDE5, the “effect on PDE5 activity (in words)” value is on record as “very low activity” and the “PDE5 activity, increase (↑, enhancement)” value is given as 3.5%. Moreover, at human recombinant COX-2, the IC50 is 0.21 µM and the “COX-2 S.I. (COX-1/COX-2)” value came out at 8.1. In test [1], the MABP is recorded as 85^&, the “MABP compared with control (in words)” value was “insignificantly lower than the control values” and the “MABP compared with sildenafil (in words)” value was “significantly higher than the sildenafil values”.

With `CC(=O)C(=NO)C(=O)Nc1nccs1` [Compound 2, 2-(hydroxyimino)-3-oxo-N-(thiazol-2-yl)butanamide], inhibition against ovine COX-1 was half-maximal at 1.5 µM (IC50). Further, the inhibition at 10 µM at PDE5 is 53%. In addition, at human recombinant COX-2, the IC50 amounted to 0.11 µM and the “COX-2 S.I. (COX-1/COX-2)” value is on record as 13.64. Besides, in test [1], the MABP was 115^## and the “MABP compared with control (in words)” value is listed as “significantly higher”.

The molecule `COc1ccc(N/C(C)=C\C(=O)Nc2nccs2)cc1` [Compound 23b, (Z)-3-((4-methoxyphenyl)amino)-N-(thiazol-2-yl)but-2-en-amide] gave an IC50 against ovine COX-1 of 5.74 µM. At PDE5, the “effect on PDE5 activity (in words)” value was “increased the PDE5 activity; also recorded: very low activity”; the “PDE5 activity, increase (↑, enhancement)” value is 15%; the inhibition at 10 µM worked out at 100%. At human recombinant COX-2, the half-maximal inhibitory concentration (IC50) came to 0.56 µM and the “COX-2 S.I. (COX-1/COX-2)” value is 10.25. In test [1], the MABP is given as 110^## and the “MABP compared with control (in words)” value is on record as “significantly higher; also recorded: without a notable decrease in MABP”.

In turn, `C/C(=C/C(=O)Nc1nccs1)Nc1ccccc1` [Compound 23a, (Z)-3-(phenylamino)-N-(thiazol-2-yl)but-2-enamide] had an IC50 on ovine COX-1 of 6.3 µM. Besides, at PDE5, the inhibition at 10 µM was found to be 100%. Moreover, on human recombinant COX-2, the half-inhibitory concentration (IC50) stood at 0.71 µM and the “COX-2 S.I. (COX-1/COX-2)” value was 8.87. Further, in test [1], the MABP worked out at 108 and the “MABP compared with control (in words)” value is reported as “without causing hypotension; also recorded: higher than the control values in a nonsignificant manner; also recorded: without a notable decrease in MABP”.
